Results on one molecule are retold here after patent publication US20200085047A1, “Use of an Acyclic Picolinamide Compound as a Fungicide for Control of Phytopathogenic Fungi in Vegetables” (Dow AgroSciences LLC, priority 2017, published 2020).

Type in all cases: in vivo
For one assay, the system named is Corynespora cassiicola. Put plainly: Field assessment of Corynespora cassiicola (CORYCA) in tomato. The conditions noted are these: SC. The text has this:
Field Assessment of Corynespora cassiicola (CORYCA) in Tomato:
A fungicidal treatment containing Compound I, applied in an SC formulation (MSO built-in) and tank mixed with an adjuvant (Agnique BP-420, 50% w/w at 0.2% v/v or Adsee C80W 80%), was sprayed on tomato plants (LYPES, Charger variety) at growth stage BBCH64 (4th flower open) at rates of 50, 75, 100, and 150 grams of active ingredient per hectare (g ai/ha). The experimental plots were inoculated with the target spot pathogen one day after initial application. The treatment was part of an experimental trial designed as a randomized complete block (RCB) with four replications and a plot of approximately 6×25 feet (ft). Compound I was applied at water volume of 100 gallons per acre (gal/acre), using a tractor sprayer (SCDISC D1 Nozzles) and pressurized at 200 psi.
Disease severity (percentage of visual diseased foliage (leaf) on whole plot) was assessed four times during the trial (1-20 days after application, DAA). Area under the disease progress curve (AUDPC) was calculated for each plot using the sets of recorded severity data. Relative AUDPC (% control based on AUDPC) was calculated as percent of the untreated control.

For assay [1], the system named is Erysiphe cichoracearum. Put plainly: Field assessment of Erysiphe cichoracearum (ERYSCI) on cucumber, 2 day protectant. The conditions noted are these: 5% EC + Trycol. The method, then: (§1) Field Assessment of Erysiphe Cichoracearum (ERYSCI) on Cucumber:
Assessment of compound I of ERYSCI on cucumbers, in both protectant and curative fashion, was performed in two separate field trials. For the two day protectant test (2DP), a fungicidal treatment containing a 5% EC formulation of compound I plus an adjuvant (Trycol, 50% w/w at 0.2% v/v), was sprayed on cucumber plants (CUMSA) twice, the first application at the fruiting stage 41 days after planting, with the following application after 7 days. Formulations of compound I were applied at rates of 50, 100, and 150 grams of active ingredient per hectare (g ai/ha). The experimental plots were inoculated with the powdery mildew pathogen 2 days after the first application. The treatment was part of an experimental trial designed as a randomized complete block with four replications and a plot of approximately 2×1 m, with formulations of compound I being applied at water volume of 1200 L/ha based on seedling sizes.
Disease severity was assessed as percent diseased area of cucumber foliage per plant (6 plants per plot randomly). Cucumber powdery mildew infection was assessed three times, 7 days after application A (DAAA), and 7 and 14 DAAB. Area under the disease progress curve (AUDPC) was calculated for each plot using the sets of recorded visual infection data. Relative AUDPC (% control based on AUDPC) was calculated as percent of the nontreated control.

The subject of the next assay is Alternaria solani. As to the kind of experiment: Field assessment of Alternaria solani (ALTESO) on tomato, trial 2 (natural disease pressure). The conditions noted are these: for Percent disease control on tomato leaves, Trial 2, 5% EC: 5% EC + Agnique BP420; for Percent disease control on tomato leaves, Trial 2, 10% SC: 10% SC + Agnique BP420. The text has this: Field Assessment of Alternaria solani (ALTESO) on Tomato:
In a replicated trial, a fungicidal treatment containing Compound I, applied in both a 5% EC and 10% SC formulation and tank mixed with an adjuvant (Agnique BP420, 50% w/w at 0.3% v/v), was sprayed on tomato plants (LYPES, Taylor variety) at approximately 21 days after planting. Formulations of compound I was applied at rates of 100 and 200 grams of active ingredient per hectare (g ai/ha). The trial was based on six foliar applications at 10 day intervals under natural disease pressure of tomato early blight. The treatment was part of an experimental trial designed as a randomized complete block with four replications and a plot of approximately 2×4 m. Formulations of compound I were applied at water volume of 800 L/ha, using a backpack plot sprayer (BKPCKENG, Solo 443; HCSOLID—Albutz ATR80 Orange Nozzle) and pressurized at 300 kPa. Disease severity (percent control) was recorded as percent visual leaf infection per plot and was assessed at 10 days after the last application.

The subject of assay [2] is Erysiphe cichoracearum. Put plainly: Field assessment of Erysiphe cichoracearum (ERYSCI) on cucumber, 2 day curative. The conditions noted are these: 5% EC + Trycol.
From the text: as §1
In the curative trial, a fungicidal treatment containing a 5% EC formulation of compound I plus an adjuvant (Trycol, 50% w/w at 0.2% v/v), was sprayed on cucumber plants (CUMSA) twice, the first application at the fruiting stage 29 days after planting, with the second application after 7 days. Formulations of compound I were applied at rates of 50, 100 and 150 grams of active ingredient per hectare (g ai/ha). The experimental plots were inoculated with the powdery mildew pathogen 2 days before the first application (curative). The treatment was part of an experimental trial designed as a randomized complete block with four replications and a plot of approximately 2×1 m, with formulations of compound I being applied at water volume of 1200 L/ha based on seedling sizes.
Disease severity was assessed as percent diseased area of cucumber foliage per plant (6 plants per plot randomly). Powdery mildew disease severity was assessed four times, 7 days after application A (DAAA), plus 7, 14 and 21 DAAB. Area under the disease progress curve (AUDPC) was calculated for each plot using the sets of recorded visual infection data. Relative AUDPC (% control based on AUDPC) was calculated as percent of the nontreated control.

In the next assay the test system is Botrytis cinerea. As to the kind of experiment: Greenhouse assessment of Botrytis cinerea (BOTRCI) on broad bean. The conditions noted are these: inoculated 1-day post application. As to the method: Greenhouse Assessment of Botrytis cinerea (BOTRCI) on Broad Bean: Technical grades of material were dissolved in acetone, which were then mixed with nine volumes of water containing 100 ppm of Triton X-100. The fungicide formulations were applied onto seedling plants using an automated booth sprayer to run off. All sprayed plants were allowed to dry prior to further handling. Test plants were inoculated with Botrytis cinerea 1-day post application. When disease symptoms were fully expressed on the untreated plants, percent diseased area of the plant was assessed on a scale of 0 to 100 percent disease severity. Percent disease control was calculated using the ratio of disease severity on treated plants relative to untreated plants.

Regarding `COc1ccnc(C(=O)N[C@@H](C)C(=O)O[C@@H](C)C(c2ccc(F)cc2)c2ccc(F)cc2)c1OC(C)=O` [Compound I, (S)-1,1-bis(4-fluorophenyl)propan-2-yl (3-acetoxy-4-methoxypicolinoyl)-L-alaninate], the “Percent Control of CORYCA (AUDPC)” value in the assay with Corynespora cassiicola (Compound I 50 g/ha, Agnique BP420, 200 mL/ha) amounted to 53.1%; with Corynespora cassiicola (Compound I 50 g/ha, MSO, 100 g/ha) it was 55.2%; with Corynespora cassiicola (Compound I 75 g/ha, Agnique BP420, 300 mL/ha), 56.9%; in the assay with Corynespora cassiicola (Compound I 75 g/ha, MSO, 150 g/ha), 56.1%; in the assay on Corynespora cassiicola (Compound I 100 g/ha, Adsee C80W 80%, 250 g/ha) it was 61.4%; in the assay with Corynespora cassiicola (Compound I 100 g/ha, Agnique BP420, 400 mL/ha) it was 74.1%. Further, the “Percent Control of CORYCA (AUDPC)” value amounted to 71.6% with Corynespora cassiicola (Compound I 100 g/ha, MSO, 200 g/ha); 83.9% in the assay on Corynespora cassiicola (Compound I 150 g/ha, Agnique BP420, 600 mL/ha); 84.0% in the assay with Corynespora cassiicola (Compound I 150 g/ha, MSO, 300 g/ha). Moreover, the “Percent control based on AUDPC, ERYSCI 2 DP” value with Erysiphe cichoracearum [1] (50 g ai/ha), with Erysiphe cichoracearum [1] (100 g ai/ha) and in the assay on Erysiphe cichoracearum [1] (150 g ai/ha) was “A (76-100)” each time. For the same molecule, the “Percent disease control on tomato leaves, Trial 2, 5% EC” value in the assay on Alternaria solani (100 g ai/ha) and with Alternaria solani (200 g ai/ha) was “A (76-100)” each time. In addition, the “Percent disease control on tomato leaves, Trial 2, 10% SC” value in the assay on Alternaria solani (100 g ai/ha) and in the assay with Alternaria solani (200 g ai/ha) was “A (76-100)” throughout. The “Percent control based on AUDPC, ERYSCI 2 DC” value with Erysiphe cichoracearum [2] (50 g ai/ha) is “A (76-100)”; in the assay on Erysiphe cichoracearum [2] (100 g ai/ha) it was “B (51-75)”; in the assay on Erysiphe cichoracearum [2] (150 g ai/ha), “C (26-50)”. Moreover, the “% Control, BOTRCI” value with Botrytis cinerea (6.25 ppm) was “B (51-75)”; in the assay on Botrytis cinerea (25 ppm) it was “A (76-100)”; in the assay on Botrytis cinerea (100 ppm), “A (76-100)”; with Botrytis cinerea (400 ppm), “A (76-100)”.
